Laboratory results published in patent publication US7989203B2, “Methods for use of apoptotic cells to deliver antigen to dendritic cells for induction or tolerization of T cells” (The Rockefeller University, priority 1998, dated 2011).
“Also recorded” adds a separate entry of the source. Like-named read-outs stand apart in the source and are kept apart here. *: point of attachment. Cbz = O=C(OCc1ccccc1)*

Experiments:
DCs [1] = assay type: cell-based, human
immature DCs = assay type: cell-based, human; conditions: for Percent Inhibition of phagocytosis of apoptotic cells: immature DC/apoptotic cell coculture, averages of 2-4 experiments
protein kinase C = conditions: footnote to Table II; cited from earlier work
DCs [2] = test: Y-Ae epitope (I-Ab/I-E peptide complex) formation on DCs cultured with B blasts (FACS); assay type: cell-based, mouse; conditions: DCs cultured 20 h with B blasts
Protocol: [FIG. 11B]: Y-Ae epitope formation is blocked by NH4Cl. DCs were cultured 20 h with B blasts with or without NH4Cl at 5-20 mM. The cultures were stained for Y-Ae and CD86.
Antibodies. The Y-Ae hybridoma was generously provided by Dr. C. Janeway, Yale University, New Haven Conn. and grown serum-free. The IgG2b antibody was purified on protein A sepharose, biotinylated, and used in the FACS along with PE-streptavidin to detect MHC class II-peptide complexes (75,76) with a mouse IgG2b anti-human TCR antibody as the non-reactive control [PharMingen, San Diego Calif.]. The cells were double labeled for FACS and for microscopy with FITC antibodies to CD8, CD11c, CD86, I-Ab [AF6-120.1], 1-Ad, and I-E [14-4-4S][PharMingen].
Capture of cell-derived peptides in vitro. Bone marrow DCs were generated in 24 well plates for 6 days in GM-CSF, gently washed to remove mature floating DCs, and then fed B blasts, human cells, or a peptide [residues 56-73 of 1-Eα]. Before adding I-E^+ cells or peptide, the DCs were immature, since much of the MHC class II was in intracellular lysosomal compartments and CD86 was not expressed at the surface (84) After uptake of I-E, the DCs matured with high levels of surface MHC II and CD86.

[3] = test system: influenza-infected monocytes; assay type: cell-based, human; conditions: concentrations which inhibited apoptosis of the infected monocytes; 7 days
[4] = test system: influenza-infected monocytes; assay type: cell-based, human; conditions: determined by TUNEL; without affecting expression of viral proteins
phospholipase D = conditions: footnote to Table II; cited from earlier work

## C[C@H]1CCC/C=C/[C@@H]2C[C@H](O)C[C@H]2[C@H](O)/C=C/C(=O)O1 [BFA, Brefeldin A]
DCs [1]; DCs preincubated with 6 ug/ml
  DCs ability to present antigenic material on MHC class I: completely inhibited

## COc1ccc2c(c[n+](C)c3c4cc5c(cc4ccc23)OCO5)c1OC.[Cl-] [CC, Chelethrine chloride]
Immature DCs; 12 μM
  Percent Inhibition of phagocytosis of apoptotic cells: 4%
Protein kinase C
  IC50: 0.66 µM

## C=C1[C@@H](C)[C@H]2[C@H](Cc3ccccc3)NC(=O)[C@]23[C@H](OC(C)=O)/C=C/[C@@](C)(O)C(=O)[C@@H](C)C/C=C/[C@H]3[C@@H]1O [Cytochalasin D]
Immature DCs; concentration not given
  inhibition of phagocytosis of apoptotic cells by immature DCs (in words): blocked uptake

## O=C(O)CN(CCN(CC(=O)O)CC(=O)O)CC(=O)O [EDTA]
Immature DCs
  inhibition of phagocytosis of apoptotic cells by immature DCs (in words): inhibitory

## O=C(O)c1cc(N(Cc2ccccc2O)Cc2cc(O)ccc2O)ccc1O [LA, Lavendustin A]
Immature DCs; 10 μM
  Percent Inhibition of phagocytosis of apoptotic cells: 14%
Immature DCs; 40 μM
  Percent Inhibition of phagocytosis of apoptotic cells: 41.5%

## O=C(O)c1cc(N(Cc2ccccc2O)Cc2ccccc2O)ccc1O [LB, Lavendustin B]
Immature DCs; 10 μM
  Percent Inhibition of phagocytosis of apoptotic cells: 0%
Immature DCs; 40 μM
  Percent Inhibition of phagocytosis of apoptotic cells: 0%

## CC(=O)N[C@@H](CSC(=O)[C@]1([C@@H](O)C(C)C)NC(=O)[C@H](C)[C@@H]1O)C(=O)O [Lactacystin]
DCs [1]; unpublished data, concentration not given
  antigen presentation by the uninfected DCs: only partially blocked

## Cl.N [NH4Cl, ammonium chloride]
DCs [1]
  DCs ability to present antigenic material on MHC class I: completely inhibited
DCs [2]; 5 mM
  Y-Ae development (epitope formation): partially
DCs [2]; 20 mM
  Y-Ae development (epitope formation): totally blocked; also recorded: completely blocked

## Cbz-Val-Ala-Asp-aldehyde
[3]
  generation of virus-specific CTLs after transfer of medium from treated infected monocytes to T cells and uninfected DCs: virus-specific CTLs were not generated
[4]
  apoptosis of influenza-infected monocytes: block apoptosis

## Herbamycin A
Immature DCs; 1.8 μM
  Percent Inhibition of phagocytosis of apoptotic cells: 6.5%
Immature DCs; 9 μM
  Percent Inhibition of phagocytosis of apoptotic cells: 49%
Immature DCs; 18 μM
  Percent Inhibition of phagocytosis of apoptotic cells: 66.5%
Phospholipase D
  IC50, PDGF-induced phospholipase D activation: ^§Herbamycin A is a potent cell-permeable protein tyrosine kinase inhibitor and inhibits PDGF-induced phospholipase D activation (IC50 = 8 μg/ml) in a dose dependant manner.

## TSP: purified TSP (thrombospondin)
Immature DCs; concentration not given
  inhibition of phagocytosis of apoptotic cells by immature DCs (in words): nor the addition of purified TSP to DC/apoptotic cell co-cultures has an inhibitory effect
